Legend:
Assay type in all cases: cell-based, human
MDA-MB-231 cells [1] = assay: CyQUANT cell number after 2 h exposure and wash-out; conditions: 50 μM, 2 h exposure then wash-out
Description: FIG. 19A-E. Combination of cisplatin and mdivi-1 produces synergistic pro-apoptotic effect in multidrug resistant tumor cells. (A) MDA-MB-231 cells were treated with increasing doses of mdivi-1 for 72 h. The survival was assessed by MTS assay. […] (B) MDA-MB-231 cells were treated with increasing doses of cisplatin alone or the combination with 20 μM or 50 μM of mdivi-1 for 72 h. The survival was assessed by MTS assay. (C) MDA-MB-231 cells were exposed to cisplatin and mdivi-1 alone or combination at their IC50 or 0.5 fold of their IC50. The combination index (CI) and the normalized isobologram were generated using CompuSyn. (D) MDA-MB-231 cells were treated with DMSO, 50 μM cisplatin alone, 50 μM mdivi-1 alone, or the combination for 2 h. The compounds were then washed out and the cell number was determined every 24 h by CyQuant assay. (E) MDA-MB-231 cells were treated with agents alone, or the combination at a ratio of 1:1 for 20 h. The number of apoptotic cells was determined with antibody recognizing cleaved caspase-3 followed by flow cytometry.
To explore this effect further, MDA-MB-231 cells were treated with DMSO as a vehicle control, 50 μM of cisplatin, 50 μM of mdivi-1, or 50 μM of cisplatin plus 50 μM of mdivi-1 for 2 hours. The cells were then washed with growth media and plated in black 96-well plates. Survivals were measured by CyQUANT assay. Data represent mean±SD. n=4 wells. […]

MDA-MB-231 cells [2] = assay: Cell cycle analysis by anti-BrdU, anti-phospho-Histone H3 and PI staining; conditions: 20 μM, 20 h
Description: (§1) FIG. 22A-E. Mdivi-1 inhibits DNA replication and its combination with cisplatin enhances replication stress leading to efficient G2 phase arrest of the cell cycle. (A) MDA-MB-231 cells were treated with cisplatin alone, mdivi-1 alone or the combination at the indicated concentrations for 4 h. Western blot was then performed to detect the phosphorylation status of key proteins involved in DNA damage response. (B) MDA-MB-231 cells were treated with 20 μM cisplatin alone, 20 μM mdivi-1 alone or the combination for 20 h. The distribution of cell cycle was determined by triple staining of the cells with anti-BrdU, anti-phospho-Histone H3 and PI. (C) Quantification of the distribution of cell cycle analyzed in panel B. (D) The effect of mdivi-1 on the rate of DNA synthesis was analyzed by a histogram, which was generated from the data obtained in panel B, showing the changes of BrdU intensity. (E) Cells were treated as described in B and γ-H2AX was analyzed by western blot.
Cells were treated with 20 μM cisplatin, 20 μM mdivi-1, or the combination of 20 μM cisplatin and 20 μM mdivi-1 for 20 h. S phase cells were then pulse-labeled with 10 μM BrdU for 30 min at 37° C. Cells were trypsinized, fixed in 70% ice-cold ethanol, and incubated overnight at 4° C. DNA was denatured in 2 N HCl containing 0.5% Triton X-100, and neutralized with 0.1 M Na2B4O7. Cells were then stained with FITC-labeled anti-BrdU antibody (BD Biosciences, San Jose, Calif.). To determine the number of cells in mitosis, cells were then stained with Alexa Fluor 647-conjugated phospho-Histone H3 (Ser 10) antibody (Cell signaling technology). To measure DNA content, cells were incubated in PI solution (PBS containing 50 μg/ml of PI and 40 μg/ml of RNase A) for 30 min at room temperature. Samples were analyzed on a CyAn ADP Analyzer (Beckman Coulter, Brea, Calif.). Data were analyzed using Summit software.

MDA-MB-231 cells [3] = assay: Western blot of DNA damage response proteins; conditions: 4 h; mdivi-1 alone at 50 μM
Description: as §1
Whole cell lysate was prepared by lysing cells in cell lysis buffer (Cell signaling technology) containing complete protease inhibitor (Roche). Cell lysates were then cleared at 15,000 rpm for 15 min at 4° C. […] The protein content was quantified using a Bio-Rad Protein Assay kit (Bio-Rad Laboratories, Hercules, Calif.). […]

Row | SMILES | effect on cell growth / survival after short exposure (MDA-MB-231 cells [1]) | BrdU incorporation into DNA (MDA-MB-231 cells [2]) | S phase cells (MDA-MB-231 cells [2]) [%] | phosphorylation / activation of Chk1 (MDA-MB-231 cells [3]) | G2 phase cells (MDA-MB-231 cells [2]) [%]
1 | COc1cc(-n2c(=S)[nH]c3ccccc3c2=O)c(Cl)cc1Cl [mdivi-1] | reversible | substantially decreased | 44.23 | induced activation of Chk1 | 
2 | N.N.[Cl][Pt][Cl] [cisplatin] | only slightly slowed down cell growth | abolished the uptake of BrdU |  | phosphorylated | 18.97
